Assay results published in ChEMBL document CHEMBL1122667, “Acetylation of some novel hemicholinium compounds by soluble choline acetyltransferase: structure-activity relationships” (J Med Chem, 1984).

T1: Choline O-acetyltransferase (Rattus norvegicus) (UniProt P32738)
T1 sequence (whole entry): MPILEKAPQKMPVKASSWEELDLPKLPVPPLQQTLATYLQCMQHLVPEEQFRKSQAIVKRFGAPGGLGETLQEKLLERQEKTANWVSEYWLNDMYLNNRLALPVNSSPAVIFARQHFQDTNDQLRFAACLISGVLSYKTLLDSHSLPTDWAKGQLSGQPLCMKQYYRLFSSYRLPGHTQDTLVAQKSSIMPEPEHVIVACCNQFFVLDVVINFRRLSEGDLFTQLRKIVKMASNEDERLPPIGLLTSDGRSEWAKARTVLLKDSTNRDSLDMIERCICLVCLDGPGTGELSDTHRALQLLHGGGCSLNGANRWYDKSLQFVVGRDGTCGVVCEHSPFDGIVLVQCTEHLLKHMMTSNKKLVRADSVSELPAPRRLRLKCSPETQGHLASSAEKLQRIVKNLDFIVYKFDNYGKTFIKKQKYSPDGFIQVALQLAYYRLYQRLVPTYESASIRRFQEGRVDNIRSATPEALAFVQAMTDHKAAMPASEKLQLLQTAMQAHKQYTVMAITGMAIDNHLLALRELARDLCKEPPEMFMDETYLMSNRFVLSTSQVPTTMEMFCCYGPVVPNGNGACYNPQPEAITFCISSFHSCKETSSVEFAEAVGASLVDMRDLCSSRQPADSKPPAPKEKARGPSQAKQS


What was measured:
[1] = molecular target: T1, Choline O-acetyltransferase (Rattus norvegicus); assay: Rate of acetylation of 13.0+/-1.1 umol compound by 1 g of choline acetyltransferase (ChAc) by incubating for 10 minutes at 37 degrees Centigrade; parameters: reference not given here
[2] = substrate: C[N+]1(C)CCOC(O)(c2ccc(-c3ccc(C4(O)C[N+](C)(C)CCO4)cc3)cc2)C1; assay: (§1) Apparent Michaelis-Menten Constant (KM) for the acetylation of compound was calculated from Linewear-Burke plots by incubating for 10 minutes at 37 degrees Centigrade
[3] = substrate: C[N+](C)(C)CCO; assay: as §1
[4] = substrate: C[N+]1(C)CCOC(O)(c2ccc(CCCc3ccc(C4(O)C[N+](C)(C)CCO4)cc3)cc2)C1; assay: as §1

Row | Molecule | Acetylation [1] | also measured
1 | C[N+](C)(C)CCO | 100% | –
2 | C[N+]1(C)CCOC(O)(c2ccc(-c3ccc(C4(O)C[N+](C)(C)CCO4)cc3)cc2)C1 (centres undefined) | 28% | –
3 | C[N+]1(C)CCOC(O)(c2ccc(CCCc3ccc(C4(O)C[N+](C)(C)CCO4)cc3)cc2)C1 (centres undefined) | 28% | –
4 | C[N+]1(C)CCOC(O)(c2ccc(Cc3ccc(C4(O)C[N+](C)(C)CCO4)cc3)cc2)C1 (centres undefined) | 4% | –
5 | C[N+]1(C)CCOC(O)(c2ccc(CCc3ccc(C4(O)C[N+](C)(C)CCO4)cc3)cc2)C1 (centres undefined) | 3% | –
6 | C[N+]1(C)CCOC(O)(c2ccc(CCCCc3ccc(C4(O)C[N+](C)(C)CCO4)cc3)cc2)C1 (centres undefined) | 5% | –
7 | Choline O-acetyltransferase (Rattus norvegicus), P32738 (protein) MPILEKAPQKMPVKASSWEELDLPKLPVPPLQQTLATYLQCMQHLVPEEQFRKSQAIVKRFGAPGGLGETLQEKLLERQEKTANWVSEYWLNDMYLNNRLALPVNSSPAVIFARQHFQDTNDQLRFAACLISGVLSYKTLLDSHSLPTDWAKGQLSGQPLCMKQYYRLFSSYRLPGHTQDTLVAQKSSIMPEPEHVIVACCNQFFVLDVVINFRRLSEGDLFTQLRKIVKMASNEDERLPPIGLLTSDGRSEWAKARTVLLKDSTNRDSLDMIERCICLVCLDGPGTGELSDTHRALQLLHGGGCSLNGANRWYDKSLQFVVGRDGTCGVVCEHSPFDGIVLVQCTEHLLKHMMTSNKKLVRADSVSELPAPRRLRLKCSPETQGHLASSAEKLQRIVKNLDFIVYKFDNYGKTFIKKQKYSPDGFIQVALQLAYYRLYQRLVPTYESASIRRFQEGRVDNIRSATPEALAFVQAMTDHKAAMPASEKLQLLQTAMQAHKQYTVMAITGMAIDNHLLALRELARDLCKEPPEMFMDETYLMSNRFVLSTSQVPTTMEMFCCYGPVVPNGNGACYNPQPEAITFCISSFHSCKETSSVEFAEAVGASLVDMRDLCSSRQPADSKPPAPKEKARGPSQAKQS | – | Km [2]: 1210 µM; Km [3]: 290 µM; Km [4]: 1270 µM
